Measurements reported in patent US9394561B2, “Cyclic peptide production” (National Research Council of Canada, priority 2011, dated 2016).
Entries after “also recorded” stand apart in the source; their conditions may differ. Square brackets hold non-standard residues; d marks the D form. Ends that are not written are not given here.

Tested on: S. vaccaria PCY1
Assay: In vitro assay of recombinant S. vaccaria PCY1 with wild type and mutant presegetalin substrates, products detected by LC/MS
Type: biochemical, Saponaria vaccaria
Parameters: key to CP (cyclic peptide product detected by LC/MS after in vitro assay) / LP (linear peptide product detected by LC/MS after in vitro assay): +=presence; −=absence
Details: for cyclic peptide production by S. vaccaria PCY1 (in words) / linear peptide production by S. vaccaria PCY1 (in words): LC/MS and MS/MS; for CP (cyclic peptide product detected by LC/MS after in vitro assay) / LP (linear peptide product detected by LC/MS after in vitro assay): substrates tested for cyclization by S. vaccaria PCY1
Description: The gene corresponding to S. vaccaria PCY1 was cloned and expressed in E. coli with a His-tag. HisPur Cobalt Resin™ (Thermo Scientific) was used for purification of recombinant PCY1. The purified PCY1 was quantified using BCA method (Pierce; http://http://www.piercenet.com/) with BSA as a calibration standard. The in vitro assay contained 20 mM Tris buffer (pH 8.5), 100 mM NaCl, 5 mM DTT, 0.2 mg BSA, and 1.5 μg of substrates (wild type and mutant presegetalins, procured from Bio Basic Inc with >90% purity) and was initiated by the addition of 0.3 μg of PCY1, in a total reaction volume of 100 μl. The assay was incubated at 30° C. for up to 1 h and stopped by placing reactions in dry ice. The assays were lyophilized, re-suspended in methanol, evaporated and re-suspended in 50:50 v/v methanol/water for LC/MS analysis.
Ion trap ESI+ LC/MS/MS analysis was used to detect production of cyclic peptides using an Agilent 6320 Ion Trap LC/MS system under default Smart Parameter settings. The analyzer and ion optics were adjusted to achieve proper resolution (Agilent Installation Guide #G2440-90105) using the ESI Tuning Mix (Agilent #G2431A). The mass spectrometer scanned from 50 to 2200 mass units at 8100 mass units sec^−1 with an expected peak width of 0.35 atomic mass units. For auto MS/MS, the trap isolation width was 4 atomic mass units. The associated Agilent 1200 LC was fitted with a Zorbax 300 EXTEND-C18 column (150×2.1 mm, 3.5 μm particle size) maintained at 35° C. The binary solvent system consisted of 90:10 v/v water/acetonitrile containing 0.1% formic acid and 0.1% ammonium formate (solvent A) and 10:90 v/v water/acetonitrile containing 0.1% formic acid and 0.1% ammonium formate (solvent B). The separation gradient was 90:10 A/B to 50:50 A/B in 3 ml over 20 min.
In order to characterize substrate specificity of PCY1 and understand the segetalin A biosynthetic mechanism, a total of 44 substrates (Table 3) were tested for the PCY1 activity and the results are briefly summarized in Table 3. The last two columns in Table 3 summarize product type detected by LC/MS after in vitro assays (CP is cyclic peptide and LP is linear peptide, +=presence, −=absence, NA=not applicable). The 44 substrates were classified as follows: • (A) Presegetalin A1 [14,32], a wild type (WT) precursor of segetalin A • (B) Truncated mutants of presegetalin A1[14,32] • (C) Alanine scanning mutants corresponding to variants of the mature segetalin A sequence • (D) Alanine scanning mutants of the C-terminal region of presegetalin A1[14,32] • (E) D-amino acid mutants corresponding to variants of the mature segetalin A sequence • (F) Insertion mutants corresponding to variants of the mature segetalin A sequence • (G) Other A-class and F-class presegetalins • (H) Putative cyclic peptide precursors from Dianthus caryophyllus

Sequence of S. vaccaria PCY1 (as listed by the source): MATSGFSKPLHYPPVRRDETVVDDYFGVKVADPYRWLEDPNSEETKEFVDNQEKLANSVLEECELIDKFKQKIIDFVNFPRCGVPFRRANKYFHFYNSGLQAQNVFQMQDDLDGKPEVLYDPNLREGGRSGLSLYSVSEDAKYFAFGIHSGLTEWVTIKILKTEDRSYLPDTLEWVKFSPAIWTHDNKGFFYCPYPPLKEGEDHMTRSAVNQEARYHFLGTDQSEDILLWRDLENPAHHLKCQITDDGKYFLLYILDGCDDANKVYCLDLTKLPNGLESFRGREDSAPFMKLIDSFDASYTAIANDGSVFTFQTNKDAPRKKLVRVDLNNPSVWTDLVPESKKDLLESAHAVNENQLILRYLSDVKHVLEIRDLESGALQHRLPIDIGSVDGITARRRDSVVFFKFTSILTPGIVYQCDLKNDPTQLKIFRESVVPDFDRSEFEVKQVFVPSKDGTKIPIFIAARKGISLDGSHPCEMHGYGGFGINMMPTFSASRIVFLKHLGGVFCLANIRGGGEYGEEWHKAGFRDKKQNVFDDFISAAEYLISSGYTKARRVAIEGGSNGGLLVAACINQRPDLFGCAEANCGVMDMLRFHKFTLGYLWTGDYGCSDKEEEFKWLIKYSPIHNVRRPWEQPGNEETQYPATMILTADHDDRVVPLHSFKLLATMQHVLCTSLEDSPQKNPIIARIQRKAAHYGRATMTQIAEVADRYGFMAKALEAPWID

Substance	cyclic peptide production by S. vaccaria PCY1 (in words)	PCY1 activity (total amount of segetalin A produced) (WT precursor, optimized assay condition)	CP (cyclic peptide product detected by LC/MS after in vitro assay)	LP (linear peptide product detected by LC/MS after in vitro assay)	linear peptide production by S. vaccaria PCY1 (in words)	increase in segetalin A production relative to wild type presegetalin A1[14,32] (alanine scanning mutants of C-terminal region) [%]	segetalin A production, times lower than the WT substrate (alanine scanning mutants of C-terminal region, FIG. 9) [times]
1 (GVPVWAFQAKDVENASAPV; listed as Saponaria vaccaria) [compound 1]	segetalin A and the linear form (linear peptide) of segetalin A were produced; also recorded: cyclic peptide products were detected from all of them	3 nmol/mg of protein/min	+	+			
2 (GVPVWAFQAKDVENAPV; Presegetalin A1[14,30]) [compound 2]				+	almost equivalent to the linear peptide formed from the WT substrate		
3 (GVPVWAFQAKDVENA; Presegetalin A1[14,28]) [compound 3]			−	+	almost equivalent to the linear peptide formed from the WT substrate		
4 (GVPVWAFQAKD; Presegetalin A1[14,24]) [compound 4]			−	+	almost equivalent to the linear peptide formed from the WT substrate		
5 (GVPVWAF; Presegetalin A1[14,20]) [compound 5]			−	−			
6 (GVPVWA; Presegetalin A1[14,19]) [compound 6]			−				
8 (GAPVWAFQAKDVENASAPV; Presegetalin A1[14,32] variant aa15 = alanine) [compound 8]			+	+			
9 (GVAVWAFQAKDVENASAPV; Presegetalin A1[14,32] variant aa16 = alanine) [compound 9]			+	+			
10 (GVPAWAFQAKDVENASAPV; Presegetalin A1[14,32] variant aa17 = alanine) [compound 10]			+	+			
12 (GVPVWVFQAKDVENASAPV; Presegetalin A1[14,32] variant aa19 = valine) [compound 12]	neither cyclic peptide nor linear peptide was detected		−	−	neither cyclic peptide nor linear peptide was detected		
13 (GVPVWAAQAKDVENASAPV; Presegetalin A1[14,32] F20A) [compound 13]	sensitive		+	+			
14 (GVPVWAFAAKDVENASAPV; Presegetalin A1[14,32] Q21A) [compound 14]	sensitive		+	+			
15 (GVPVWAFQVKDVENASAPV; Presegetalin A1[14,32] A22V) [compound 15]			+	+			
16 (GVPVWAFQAADVENASAPV; Presegetalin A1[14,32] K23A) [compound 16]	sensitive		+	+			
17 (GVPVWAFQAKAVENASAPV; Presegetalin A1[14,32] D24A) [compound 17]	sensitive		+	+			
18 (GVPVWAFQAKDAENASAPV; Presegetalin A1[14,32] V25A) [compound 18]	relatively higher amounts of segetalin A than that produced from WT substrate		+	+			

Substance	cyclic peptide production by S. vaccaria PCY1 (in words)	PCY1 activity (total amount of segetalin A produced) (WT precursor, optimized assay condition)	CP (cyclic peptide product detected by LC/MS after in vitro assay)	LP (linear peptide product detected by LC/MS after in vitro assay)	linear peptide production by S. vaccaria PCY1 (in words)	increase in segetalin A production relative to wild type presegetalin A1[14,32] (alanine scanning mutants of C-terminal region) [%]	segetalin A production, times lower than the WT substrate (alanine scanning mutants of C-terminal region, FIG. 9) [times]
19 (GVPVWAFQAKDVANASAPV; Presegetalin A1[14,32] E26A) [compound 19]	relatively higher amounts of segetalin A than that produced from WT substrate		+	+			
20 (GVPVWAFQAKDVEAASAPV; Presegetalin A1[14,32] N27A) [compound 20]	sensitive		+	+			
21 (GVPVWAFQAKDVENVSAPV; Presegetalin A1[14,32] A28V) [compound 21]	sensitive		+	+			
22 (GVPVWAFQAKDVENAAAPV; Presegetalin A1[14,32] S29A) [compound 22]	relatively higher amounts of segetalin A than that produced from WT substrate		+	+		30	
23 (GVPVWAFQAKDVENASVPV; Presegetalin A1[14,32] A30V) [compound 23]			+	+			
24 (GVPVWAFQAKDVENASAAV; Presegetalin A1[14,32] P31A) [compound 24]	sensitive		+	+			11
25 (GVPVWAFQAKDVENASAPA; Presegetalin A1[14,32] V32A) [compound 25]			+	+			
26 (G[dV]PVWAFQAKDVENASAPV) [compound 26]			+	+			
27 (GV[dP]VWAFQAKDVENASAPV) [compound 27]			+	−			
28 (GVP[dV]WAFQAKDVENASAPV) [compound 28]			+	−			
29 (GVPV[dW]AFQAKDVENASAPV) [compound 29]			+	+			
30 (GVPVW[dA]FQAKDVENASAPV) [compound 30]	neither cyclic peptide nor linear peptide were detected		−	−	neither cyclic peptide nor linear peptide were detected		
33 (GVPAVWAFQAKDVENASAPV; Presegetalin A1[14,32] ins 16A17) [compound 33]	both detected		+	+	both detected		
34 (GVPAAAVWAFQAKDVENASAPV; Presegetalin A1[14,32] ins 16AAA17) [compound 34]	produced the expected 9 amino acid cyclic peptide		+	+	linear peptide products		
35 (GVAWAFQAKDVENASAPV; Presegetalin B1[14,31]) [compound 35]	cyclic peptide products were detected from all of them		+	−			
